The nature of data set [1]: Solubility in tetrahydrofuran. In kind it is physicochemical. The following applies: 1 part by weight of compound in 100 parts by weight of tetrahydrofuran. From the text:
(§1) Evaluation was made by three ranks, i.e., by 0 if the composition dissolved completely and provided a clear mixture, by ▴ if it almost dissolved but provided a slightly cloudy mixture and by X if it little dissolved.

The conditions of data set [2]: radiation at 254 nm; cited from earlier work.
Data set [3] can be described thus: Compatibility with the epoxy resin (EPICOAT 828). In kind it is physicochemical. The note with it: 1 part by weight of compound in 100 parts by weight of epoxy resin (EPICOAT 828).
Text: as §1

Data set [4] can be described thus: Compatibility with the urethane prepolymer (1). In kind it is physicochemical. The following applies: 1 part by weight of compound in 100 parts by weight of urethane prepolymer (1).
Text: as §1

The structures appear in SMILES notation.

Regarding `CC(=NOC(=O)NCCCCCCNC(=O)ON=C(C)c1ccccc1)c1ccccc1` [Example 1], the “Solubility THF” value in data set [1] is reported as “◯”.

As for `NC(=O)OCc1ccccc1[N+](=O)[O-]` [o-nitrobenzyl carbamate], the quantum yield entry in data set [2] is recorded as “about 0.13”.

For `C=C(C)C(=O)OCCNC(=O)ON=C(C)c1ccccc1` [Example 4], the “Solubility Epoxy Resin” value in data set [3] is recorded as “◯”. In data set [1], the “Solubility THF” value is “◯”. In data set [4], the “Solubility Prepolymer” value is reported as “◯”.

Source of the values: US20060035995A1, “Photosensitive amine generator, photocurable composition and photoreactive adhesive composition” (Sekisui Chemical Co., Ltd., priority 2000, published 2006).
